Key:
[1] = test system: Venturia Inaequalis; assay: Action against Venturia inaequalis/apple (scab on apple); format: in vivo; details: apple seedlings cv. McIntosh, spray 0.02% active ingredient, inoculated one day after application, assessed after 4+4+4 days incubation
Method: Action Against Venturia Inaequalis/apple (Scab on Apple)
4 week old apple seedlings cv. […] One day after application apple plants are inoculated by spraying a spore suspension (4×10^5 conidia/ml) on the test plants. After an incubation period of 4 days at 21° C. and 95% r. h. the plants are placed for 4 days at 21° C. and 60% r. h. in a greenhouse. After another 4 day incubation period at 21° C. and 95% r. h. the disease incidence is assessed.

[2] = test system: Septoria nodorum; assay: Action against Septoria nodorum/wheat (Septoria leaf spot on wheat); format: in vivo; details: wheat plants cv. Arina, spray 0.02% active ingredient, inoculated one day after application, assessed 11 days after inoculation
Method: Action Against Septoria nodorum/wheat (Septoria Leaf Spot on Wheat)
(§1) 1 week old wheat plants cv. […] One day after application wheat plants are inoculated by spraying a spore suspension (5×10^5 conidia/ml) on the test plants. After an incubation period of 1 day at 20° C. and 95% r. h. plants are kept for 10 days at 20° C. and 60% r.h. in a greenhouse. The disease incidence is assessed 11 days after inoculation.

[3] = test system: Botryis cinerea; assay: Action against Botryis cinerea/apple (Botrytis on apple fruits); format: in vivo, B. cinerea; details: apple fruit cv. Golden Delicious, 30 μl droplets 0.002% active ingredient in drilled holes, inoculated two hours after application, assessed after 7 days
Method: Action Against Botryis cinerea/apple (Botrytis on Apple Fruits)
In an apple fruit cv. […] Two hours after application 50 μl of a spore suspension of B. cinerea (4×10^5 conidia/ml) are pipetted on the application sites. After an incubation period of 7 days at 22° C. in a growth chamber the disease incidence is assessed.

[4] = test system: Podosphaera leucotricha; assay: Action against Podosphaera leucotricha/apple (powdery mildew on apple); format: in vivo; details: apple seedlings cv. McIntosh, spray 0.002% active ingredient, inoculated one day after application, assessed after 12 days incubation
Method: Action Against Podosphaera leucotricha/apple (Powdery Mildew on Apple)
5 week old apple seedlings cv. […] One day after application apple plants are inoculated by shaking plants infected with apple powdery mildew above the test plants. After an incubation period of 12 days at 22° C. and 60% r. h. under a light regime of 14/10 h (light/dark) the disease incidence is assessed.

[5] = test system: Botryts cinerea; assay: Action against Botryts cinerea/tomato (Botrytis on tomatoes); format: in vivo; details: tomato plants cv. Roter Gnom, spray 0.002% active ingredient, inoculated two days after application, assessed after 4 days incubation
Method: Action Against Botryts cinerea/tomato (Botrytis on Tomatoes)
4 week old tomato plants cv. […] Two days after application tomato plants are inoculated by spraying a spore suspension (1×10^5 conidia/ml) on the test plants. After an incubation period of 4 days at 20° C. and 95% r. h. in a growth chamber the disease incidence is assessed.

[6] = test system: Puenophora teres; assay: Action against Puenophora teres/barley (net blotch on barley); format: in vivo; details: barley plants cv. Express, spray 0.002% active ingredient, inoculated two days after application, assessed 4 days after inoculation
Method: Action Against Puenophora teres/barley (Net Blotch on Barley)
as §1, with “barley” for “wheat”, “Two days” for “One day”, “(3×10^4” for “(5×10^5”, “2 days” for “1 day”, “2” for “10”, “4” for “11”

[7] = test system: Boftis cinerea; assay: Action against Boftis cinerea/grape (Botrytis on grapes); format: in vivo; details: grape seedlings cv. Gutedel, spray 0.002% active ingredient, inoculated two days after application, assessed after 4 days incubation
Method: Action Against Boftis cinerea/grape (Botrytis on Grapes)
5 week old grape seedlings cv. […] Two days after application grape plants are inoculated by spraying a spore suspension (1×10^6 conidia/ml) on the test plants. After an incubation period of 4 days at 21° C. and 95% r. h. in a greenhouse the disease incidence is assessed.

[8] = test system: Etysiphe graminis; assay: Action against Etysiphe graminis/barley (powdery mildew on barley); format: in vivo; details: barley plants cv. Express, spray 0.02% active ingredient, inoculated one day after application, assessed after 6 days incubation
Method: Action Against Etysiphe graminis/barley (Powdery Mildew on Barley)
1 week old barley plants cv. […] One day after application barley plants are inoculated by shaking powdery mildew infected plants above the test plants. After an incubation period of 6 days at 20° C./18° C. (day/night) and 60% r. h. in a greenhouse the disease incidence is assessed.

melting point	SMILES	efficacy (disease incidence) [1]	efficacy (disease incidence) [2]	efficacy (disease incidence) [3]	efficacy (disease incidence) [4]	efficacy (disease incidence) [5]	efficacy (disease incidence) [6]	efficacy (disease incidence) [7]	efficacy (disease incidence) [8]
	Cc1cn(C)cc1C(=O)Nc1ccccc1-c1ccc(Cl)cc1 [Compound 1.23]	strong efficacy	strong efficacy	strong efficacy	strong efficacy	strong efficacy	strong efficacy	strong efficacy	strong efficacy
	Cc1cn(C)cc1C(=O)Nc1ccccc1-c1ccncc1F [Compound 1.46]	strong efficacy	strong efficacy	strong efficacy	strong efficacy	strong efficacy	strong efficacy	strong efficacy	strong efficacy
	Cc1cn(C)cc1C(=O)Nc1ccccc1C1CCCCC1 [Compound 1.9]	strong efficacy	strong efficacy	strong efficacy	strong efficacy	strong efficacy	strong efficacy	strong efficacy	strong efficacy
	CC1CC(C)(C)c2cccc(NC(=O)c3cn(C)cc3C(F)(F)C(F)(F)F)c21 (racemic) [Compound 10.5]	strong efficacy	strong efficacy	strong efficacy	strong efficacy	strong efficacy	strong efficacy	strong efficacy	strong efficacy
	Cn1cc(C(=O)Nc2ccccc2C2=CCCCC2)c(C(F)(F)C(F)(F)F)c1 [Compound 1.183]	strong efficacy	strong efficacy	strong efficacy	strong efficacy	strong efficacy	strong efficacy	strong efficacy	strong efficacy
	Cc1cn(C)cc1C(=O)Nc1ccccc1C1=CCCCC1 [Compound 1.5]	strong efficacy	strong efficacy	strong efficacy	strong efficacy	strong efficacy	strong efficacy	strong efficacy	strong efficacy
148 to 149 °C	Cc1cn(C)cc1C(=O)Nc1ccccc1-c1ccc(F)cc1 [Compound 1.25]	strong efficacy	strong efficacy	strong efficacy	strong efficacy	strong efficacy	strong efficacy	strong efficacy	strong efficacy
	Cn1cc(C(=O)Nc2ccsc2-c2ccc(F)cc2)c(C(F)(F)C(F)(F)F)c1 [Compound 2.192]	strong efficacy	strong efficacy	strong efficacy	strong efficacy	strong efficacy	strong efficacy	strong efficacy	strong efficacy
	CCn1cc(C(=O)Nc2ccccc2-c2ccc(F)cc2)c(C(C)C)c1 [Compound 1.272]	strong efficacy	strong efficacy	strong efficacy	strong efficacy	strong efficacy	strong efficacy	strong efficacy	strong efficacy
	CCc1cn(CC)cc1C(=O)Nc1ccccc1-c1ccc(F)cc1 [Compound 1.266]	strong efficacy	strong efficacy	strong efficacy	strong efficacy	strong efficacy	strong efficacy	strong efficacy	strong efficacy
	Cn1cc(C(=O)Nc2ccccc2-c2ccc(Cl)cc2)c(C(F)(F)C(F)(F)F)c1 [Compound 1.190]	strong efficacy	strong efficacy	strong efficacy	strong efficacy	strong efficacy	strong efficacy	strong efficacy	strong efficacy
	CC(C)c1cn(C)cc1C(=O)Nc1ccccc1-c1ccc(Cl)cc1 [Compound 1.268]	strong efficacy	strong efficacy	strong efficacy	strong efficacy	strong efficacy	strong efficacy	strong efficacy	strong efficacy
	Cn1cc(C(=O)Nc2ccccc2-c2ccncc2F)c(C2CC2)c1 [Compound 1.244]	strong efficacy	strong efficacy	strong efficacy	strong efficacy	strong efficacy	strong efficacy	strong efficacy	strong efficacy
	Cn1cc(C(=O)Nc2cnccc2-c2ccc(F)cc2)c(C2CC2)c1 [Compound 6.51]	strong efficacy	strong efficacy	strong efficacy	strong efficacy	strong efficacy	strong efficacy	strong efficacy	strong efficacy

— patent publication US6806286B2, “Pyrrolecarboxamides and pyrrolethioamides as fungicides” (Syngenta Crop Protection, Inc., priority 2000, dated 2004)
